Earlier results on 3 molecules are cited in patent US20070292523A1, “Dihydropyrimidine Formulations” (priority 2004, published 2007).

One data set concerns cytochrome P450. The following applies: nimodipine with cimetidine (Drugs Aging, 1995, 6, 229-42).
Data set [1] concerns presystemic oxidative metabolism of nimodipine. Particulars: nimodipine and valproic acid administered in combination (Drugs Aging, 1995, 6, 229-42).

Take `CN/C(=N/CCSCc1nc[nH]c1C)NC#N` [cimetidine]: the bioavailability of nimodipine result in the data set on cytochrome P450 is on record as “approximate doubling of the bioavailability of nimodipine”. As for `COCCOC(=O)C1=C(C)NC(C)=C(C(=O)OC(C)C)C1c1cccc([N+](=O)[O-])c1` (stereo not drawn) [nimodipine, Nimodipine], the solubility in water result was “practically insoluble in water”. As to `CCCC(CCC)C(=O)O` [valproic acid], the “plasma concentrations of nimodipine” value in data set [1] is listed as “increased plasma concentrations of nimodipine”.
